From patent publication US6906175B2, “Production of adenine nucleotide translocator (ANT), novel ANT ligands and screening assays therefor” (priority 1998, dated 2005)
Entries after “also recorded” stand apart in the source; their conditions may differ.

Assays:
[1] = target: T1, bovine mitochondria (ANT) (Bos taurus, UniProt P02722); test: 125I-compound 24 competition binding (Tube Assay), beef heart mitochondria
T1 construct: from tissue; host or cells: bovine heart mitochondria
T1 sequence (P02722 2-298 limits assumed): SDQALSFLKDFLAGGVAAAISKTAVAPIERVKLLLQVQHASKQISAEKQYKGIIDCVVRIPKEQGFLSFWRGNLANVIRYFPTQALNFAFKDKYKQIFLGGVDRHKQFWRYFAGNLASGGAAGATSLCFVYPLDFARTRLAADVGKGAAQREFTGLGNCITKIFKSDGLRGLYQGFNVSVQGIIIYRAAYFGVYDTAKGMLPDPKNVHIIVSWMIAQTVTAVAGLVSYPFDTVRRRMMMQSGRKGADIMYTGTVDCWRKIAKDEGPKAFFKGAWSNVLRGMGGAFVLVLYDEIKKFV
Protocol: Bovine mitochondria were prepared as follows: Essentially all of the fat and cholesterol […] was removed from two bovine hearts which were then cut into 1-inch cubes. The cubes were ground in a meat grinder using the fine setting. Three hundred (300) […] portions of the ground heart were weighed out and, to each was added 400 ml of Isolation Buffer (IB; 250 mM sucrose, 1 mM sodium succinate, 0.2 mM K^+EDTA, 10 mM Tris-base, pH 7.8). (All buffers were filter sterilized, and column buffers were degassed, and, unless otherwise noted, all steps were carried out at 0 to 4° C. on ice or in pre-cooled rotors and centrifuges.) The preparations were mixed in a blender two times for 15 seconds on high setting and, in between and after blends, the pH was adjusted to 7.8 with 2M Tris-base. The homogenate was centrifuged for 20 minutes at 1,200×g, and the supernatant was poured through two layers of cheese cloth and adjusted to pH 7.8 with 2M Tris-base. The supernatant was then centrifuged for 30 minutes at […]. The supernatant was decanted, and the buff-colored outer pellet was dislodged with about 10 ml of IB and discarded. The brown inner pellet (heavy mitochondria) was resuspended in IB (about 10 ml per pellet). The pellets were homogenized in a glass-teflon homogenizer (2 passes at high drill speed). Samples were combined and centrifuged for 30 minutes at 11,000×g. The supernatant was decanted, and the pellets were resuspended in 60 ml of IB per 900 gm of ground heart. This centrifugation step was repeated and the pellets were finally resuspended in IB (60 ml per 900 gm of ground heart). One kilogram of beef heart typically yields about one (1) gram of mitochondria
(§1) The mitochondrial preparations were divided into aliquots (typically, 50μl for T. ni mitochondria or 20 μl for bovine mitochondria) and then either used directly in assays or flash frozen and stored at −80° C. The total protein content in the mitochondrial preparations was determined using the enhanced protocol (30 minutes at 60° C.; see http://www.ruf.rice.edu/˜bioslabs/methods/protein/BCA.html) of the bicinchoninic acid (BCA) assay (available in kit form from Pierce, Rockford, Ill.).
In the “Tube Assay,” mitochondria (from about 1 to 10 μg of total protein) were resuspended in 100 μl of Tris-KCl buffer with 0.1% BSA, pH 7.4. ^125I-labeled compound 24 (Example 11) was added to a final concentration of 0.5 nM. When used, competitors were added at these concentration ranges: unlabeled atractyloside or compound 24 final concentration from 5 nM to 10 μM; unlabeled ADP (a lower affinity competitor) was added at a final concentration of 500 nM to 1 mM.
The reaction mixes were incubated on ice for 60 minutes and then pelleted by centrifugation (approximately 16,000×g) for 11 minutes at 4° C.
Unbound ^125I-compound 24 was removed by aspiration. The pellets were contact-washed with Tris-KCl buffer, pH 7.4, and recentrifuged. The resultant pellets were aspirated and the radioactivity (dpm) in each was determined by gamma counting.

[2] = 125I-compound 24 competition binding (Tube Assay), mitochondria from control non-infected T. ni cells; details: control (nontransformed) T. ni mitochondria, 1 μg protein/tube; FIG. 15
Protocol: Atractyloside analogs (Example 6; Table 1; see also Examples 7-9) were also used in pseudo-homologous competition binding assays using T. ni/huANT3 mitochondria or bovine mitochondria. Mitochondria from noninfected T. ni cells, or T. ni cells infected with a baculovirus expressing huANT3 (see Example 3) were prepared as follows: […] cells were prepared by a subcontractor (PharMingen, San Diego, Calif.) as portions of about 250 mg of cells per tube. […]
as §1, with “Ill.). […]” for “Ill.).”
(§2) Unbound ^125I-compound 24 was removed by aspiration. […] The resultant pellets were aspirated and the radioactivity (dpm) in each was determined by gamma counting.

[3] = target: T2, T. ni/huANT3 mitochondria (Homo sapiens, UniProt P12236); test: 125I-compound 24 competition binding (Tube Assay), mitochondria from T. ni cells expressing huANT3
T2 construct: expressed in transfected cells; host or cells: Trichoplusia ni cells infected with recombinant baculovirus (cells prepared by PharMingen); isolated mitochondria
T2 sequence (P12236 1-298): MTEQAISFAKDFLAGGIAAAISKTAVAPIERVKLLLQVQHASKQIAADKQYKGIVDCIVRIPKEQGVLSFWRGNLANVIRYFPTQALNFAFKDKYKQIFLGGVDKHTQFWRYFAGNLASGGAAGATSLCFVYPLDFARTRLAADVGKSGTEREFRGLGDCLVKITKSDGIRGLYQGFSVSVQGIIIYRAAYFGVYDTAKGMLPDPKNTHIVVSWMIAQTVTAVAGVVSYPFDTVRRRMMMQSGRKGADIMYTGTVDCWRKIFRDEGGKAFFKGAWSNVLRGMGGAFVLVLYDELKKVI
Protocol: Atractyloside analogs (Example 6; Table 1; see also Examples 7-9) were also used in pseudo-homologous competition binding assays using T. ni/huANT3 mitochondria or bovine mitochondria. Mitochondria from noninfected T. ni cells, or T. ni cells infected with a baculovirus expressing huANT3 (see Example 3) were prepared as follows: […] cells were prepared by a subcontractor (PharMingen, San Diego, Calif.) as portions of about 250 mg of cells per tube. Each portion was suspended in 1 ml of MSB with protease inhibitors (leupeptin, final concentration 10 ug/ml; pepstatin, final concentration 10 ug/ml; aprotinin, final concentration, 2 ug/ml; phenylmethylsulfonyl fluoride, [PMSF], final concentration, 100 μM; all from Sigma Chemical Co., St. Louis, Mo.). The resuspended cell suspensions were frozen and thawed twice, then homogenized using a rotating teflon-coated probe and a close-fitting glass container (10 passes). The cellular homogenate was centrifuged (3,700 rpm, approximately 1,500×g) at 4° C. for 5 minutes; this supernatant from the first spin was saved. The pellet was washed with about 500 μl of MSB with protease inhibitors, centrifuged (3,800 rpm, approximately 1,600×g) at 4° C. for 5 minutes, and supernatant from this spin was combined with the supernatant from the first spin. […]
as §1, with “Ill.). […]” for “Ill.).”
as §2

Structure (SMILES): C=C1[C@@H]2CCC3[C@@](CC[C@@H]4[C@H](C(=O)O)C[C@@H](O[C@@H]5O[C@H](CO)[C@@H](OS(=O)(=O)[O-])[C@H](OS(=O)(=O)[O-])[C@H]5OC(=O)CC(C)C)C[C@@]34C)(C2)[C@@H]1O.[K+].[K+] (stereo partly drawn) [ATR, atractyloside]
- IC50 ([1]; 0.5 nM 125I-compound 24, FIG. 17, read-out: IC50, competitive inhibition of 125I-compound 24 binding): ~0.044 µM
- affinity relative to the low affinity ANT ligand ADP ([1]; 1 μg protein/tube, FIG. 13): about 1,000 fold
- competitive inhibition of 125I-compound 24 binding (in words) ([1]; FIGS. 11, 13, 16): slightly higher affinity than compound 24
- competitive inhibition of 125I-compound 24 binding (in words) [2]: only slight inhibition
- affinity relative to the low affinity ANT ligand ADP ([3]; mitochondria from T. ni cells expressing huANT3, 1 μg protein/tube, FIG. 14): about 1,000 fold
- competitive inhibition of 125I-compound 24 binding (in words) ([3]; mitochondria from T. ni cells expressing huANT3, FIGS. 12, 14, 15): slightly higher affinity than compound 24; also recorded: increasingly inhibited by higher concentrations of ATR
